Values after ≈ are worked out from the molar mass of the structure shown. “Also recorded” adds a separate entry of the source. Like-named read-outs stand apart in the source and are kept apart here.
Experiments:
[1] = system: HT-29 (monolayer culture of a human colon carcinoma); test: In vitro antitumor activity, HT-29 cells; assay type: cell-based
Source text: (§1) The antitumor activity has been deteced in vitro by culturing the tumor cells following the methodology described by Bergeron, et al.(2), and by Schroeder, et al. (6). Activity against several human tumors as leukaemia, colon carcinoma, NSC lung carcinoma, melanoma, and the like has been observed.
(§2) Biological activity: the antitumor cells employed have been P-388 (suspension culture of a lymphoid neoplasm from DBA/2 mouse), A-549 (monolayer culture of a human macrocytic lung carcinoma, HT-29 (monolayer culture of a human colon carcinoma), and MEL-28 (monolayer culture of a human melanoma), and the other indicated cell lines.
(§3) P-388 cells were seeded into 16 mm wells at 1×10^4 cells per well in 1 ml aliquots of MEM 5FCS containing the indicated concentration of drug. A separate set of cultures without drug were seeded as control of growth to ensure that cells remained in exponential phase of growth. All determinations were carried out duplicated. After three days of incubation at 37° in 10% CO2 atmosphere with 98% humidity, the wells were stained with 0.1% Crystal Violet. The IC50 was calculated by comparing the growth in wells with drug with the growth in control wells without the drug.
(§4) In Table 5 are presented the activity expressed as IC50 in mcg/ml

CV1 = test: In vitro activity, CV1 cells; assay type: cell-based; conditions: Cercopithecidae, CV-1
Source text: as §1, §2, §3, §4

[2] = system: MEL-28 (monolayer culture of a human melanoma); test: In vitro antitumor activity, MEL-28 cells; assay type: cell-based
Source text: as §1, §2, §3, §4

[3] = system: P-388 (suspension culture of a lymphoid neoplasm from DBA/2 mouse); test: In vitro antitumor activity, P-388 cells; assay type: cell-based; conditions: for IC50: Mus musculus, P388, 72 h, read-out: IC50 P-388
Source text: as §1, §2, §3, §4

[4] = system: A-549 (monolayer culture of a human macrocytic lung carcinoma); test: In vitro antitumor activity, A-549 cells; assay type: cell-based
Source text: as §1, §2, §3, §4

[5] = system: several mammalian cancer cell lines; test: In vitro antitumor activity, several mammalian cancer cell lines; assay type: cell-based
Source text: as §1

P388MDR = test: In vitro antitumor activity, P388MDR cells; assay type: cell-based, murine
Source text: as §1, §2, §3, §4

[6] = three days of incubation, Crystal Violet

SMILES	IC50 HT-29 [1]	IC50 MEL-28 [2]	IC50 P388MDR (P388MDR)	IC50 P-388 [3, 6]	IC50 A-549 [4]	further results
CCCC1(O)C(O)C(C)C/C=C/C=C/C(CC(C)O)CCC2OC3(CCC(C)C(C(C)C(O)CC)O3)C(C)C(OC(=O)/C=C/C(C)C(O)C(C)C(O)C(O)C(O)C(O)C1O)C2C (centres unmarked) [IB-96212B]						IC50 ([1]; Homo sapiens, HT-29; read-out: IC50 HT-29): 1.2 µg/mL (≈ 1.36 µM); IC50 (CV1): 0.001 µg/mL (≈ 0.00113 µM); IC50 ([2]; Homo sapiens, SK-MEL-28; read-out: IC50 MEL-28): 1 µg/mL (≈ 1.13 µM); IC50 [3, 6]: 0.001 µg/mL (≈ 0.00113 µM); IC50 ([4]; Homo sapiens, A549; read-out: IC50 A-549): 1 µg/mL (≈ 1.13 µM); antitumor activity against several mammalian cancer cell lines (in words) [5]: activity comparable to the parent IB-96212; also recorded: good antitumor actvity
COc1cccc2c1C(=O)c1c(O)c3c(c(O)c1C2=O)C[C@@](O)(C(=O)CO)C[C@@H]3O[C@H]1C[C@H](N)[C@H](O)[C@H](C)O1 [adriamicin]	0.05 µg/mL (≈ 0.092 µM)	0.02 µg/mL (≈ 0.0368 µM)	1 µg/mL (≈ 1.84 µM)	0.02 µg/mL (≈ 0.0368 µM)	0.002 µg/mL (≈ 0.00368 µM)	
N.N.[Cl][Pt][Cl] [cis-platin]	5 µg/mL	2.5 µg/mL	2.5 µg/mL	2.5 µg/mL	2.5 µg/mL	
COc1cc([C@@H]2c3cc4c(cc3[C@@H](O[C@@H]3O[C@@H]5CO[C@@H](C)O[C@H]5[C@H](O)[C@H]3O)[C@H]3COC(=O)[C@H]23)OCO4)cc(OC)c1O [etopoxide]	1 µg/mL (≈ 1.7 µM)	0.5 µg/mL (≈ 0.85 µM)	10 µg/mL (≈ 17 µM)	0.1 µg/mL (≈ 0.17 µM)	0.1 µg/mL (≈ 0.17 µM)	
CC(=O)O[C@H]1C(=O)[C@@]2(C)[C@H]([C@H](OC(=O)c3ccccc3)[C@]3(O)C[C@H](OC(=O)[C@H](O)[C@@H](NC(=O)c4ccccc4)c4ccccc4)C(C)=C1C3(C)C)[C@]1(OC(C)=O)CO[C@@H]1C[C@@H]2O [taxol]						IC50 ([1]; Homo sapiens, HT-29, read-out: IC50 HT-29): 0.002 µg/mL (≈ 0.00234 µM); IC50 ([2]; Homo sapiens, SK-MEL-28, read-out: IC50 MEL-28): 0.002 µg/mL (≈ 0.00234 µM); IC50 (P388MDR; Mus musculus): > 2 µg/mL; IC50 [3]: 0.2 µg/mL (≈ 0.234 µM); IC50 ([4]; Homo sapiens, A549, read-out: IC50 A-549): 0.002 µg/mL (≈ 0.00234 µM)
